# Data published in ChEMBL document CHEMBL1201862, “PubChem BioAssay data set” (2004).
# Calls of active or inactive are those of the source.
# Key:
# [1] = ZM109 Env clade C HIV-1 fusion inhibitors, dose response, HeLa effector, CEM target cells, luciferase, cherry-pick (AID 652058); format: functional, cell-based
# [2] = inhibitors of clade B AD8 Env fusion, dose response, cell-based, cherry-pick (AID 652062); format: functional;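 note: luciferase signal from cell-cell fusion driven by HIV-1 clade B AD8 Env; potency is for inhibitors of fusion seen as a drop in luminescence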
# [3] = target: T1, COUP transcription factor 2 (Homo sapiens, UniProt P24468); test: Luminescence-based cell-based high throughput dose response assay to identify inhibitors of COUP-TFII (NR2F2).; format: functional;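 note: HEK293 cells transiently cotransfected with COUP-TFII expression vector and reporter; luciferase reporter luminescence driven by COUP-TFII from the pX2-168 reporter plasmid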
# T1 sequence (P24468 whole entry): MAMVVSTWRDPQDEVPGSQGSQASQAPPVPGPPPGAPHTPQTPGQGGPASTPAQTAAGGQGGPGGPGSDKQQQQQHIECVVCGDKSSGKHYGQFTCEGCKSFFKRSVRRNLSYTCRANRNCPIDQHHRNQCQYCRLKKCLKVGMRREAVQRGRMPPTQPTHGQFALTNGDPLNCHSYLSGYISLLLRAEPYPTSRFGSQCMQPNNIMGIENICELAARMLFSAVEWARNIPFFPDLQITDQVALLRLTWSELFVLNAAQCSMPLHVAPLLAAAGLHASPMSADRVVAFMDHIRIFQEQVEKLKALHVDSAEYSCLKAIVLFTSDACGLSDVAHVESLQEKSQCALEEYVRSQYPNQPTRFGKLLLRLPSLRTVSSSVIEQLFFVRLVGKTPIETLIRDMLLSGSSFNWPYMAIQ
# Tumor necrosis factor = Tumor necrosis factor (Homo sapiens, UniProt P01375); test: TNFa-triggered NF-kB activation inhibitors, SAR follow-up, cell-based, revised (AID 2337); format: functional
# Chain of Tumor necrosis factor (P01375 whole entry, the tested form may be a part): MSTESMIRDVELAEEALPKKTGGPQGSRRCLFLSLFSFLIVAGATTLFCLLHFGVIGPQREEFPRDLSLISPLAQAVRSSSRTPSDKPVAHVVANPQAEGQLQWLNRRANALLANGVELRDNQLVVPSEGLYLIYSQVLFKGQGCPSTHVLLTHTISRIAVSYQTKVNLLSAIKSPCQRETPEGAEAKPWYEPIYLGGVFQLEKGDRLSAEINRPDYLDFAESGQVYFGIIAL
# [4] = target: T2, Nucleotide-binding oligomerization domain-containing protein 1 (Homo sapiens, UniProt Q9Y239); test: NOD1 signaling inhibitors, SAR follow-up, revised (AID 2333); format: functional
# T2 sequence (Q9Y239 whole entry): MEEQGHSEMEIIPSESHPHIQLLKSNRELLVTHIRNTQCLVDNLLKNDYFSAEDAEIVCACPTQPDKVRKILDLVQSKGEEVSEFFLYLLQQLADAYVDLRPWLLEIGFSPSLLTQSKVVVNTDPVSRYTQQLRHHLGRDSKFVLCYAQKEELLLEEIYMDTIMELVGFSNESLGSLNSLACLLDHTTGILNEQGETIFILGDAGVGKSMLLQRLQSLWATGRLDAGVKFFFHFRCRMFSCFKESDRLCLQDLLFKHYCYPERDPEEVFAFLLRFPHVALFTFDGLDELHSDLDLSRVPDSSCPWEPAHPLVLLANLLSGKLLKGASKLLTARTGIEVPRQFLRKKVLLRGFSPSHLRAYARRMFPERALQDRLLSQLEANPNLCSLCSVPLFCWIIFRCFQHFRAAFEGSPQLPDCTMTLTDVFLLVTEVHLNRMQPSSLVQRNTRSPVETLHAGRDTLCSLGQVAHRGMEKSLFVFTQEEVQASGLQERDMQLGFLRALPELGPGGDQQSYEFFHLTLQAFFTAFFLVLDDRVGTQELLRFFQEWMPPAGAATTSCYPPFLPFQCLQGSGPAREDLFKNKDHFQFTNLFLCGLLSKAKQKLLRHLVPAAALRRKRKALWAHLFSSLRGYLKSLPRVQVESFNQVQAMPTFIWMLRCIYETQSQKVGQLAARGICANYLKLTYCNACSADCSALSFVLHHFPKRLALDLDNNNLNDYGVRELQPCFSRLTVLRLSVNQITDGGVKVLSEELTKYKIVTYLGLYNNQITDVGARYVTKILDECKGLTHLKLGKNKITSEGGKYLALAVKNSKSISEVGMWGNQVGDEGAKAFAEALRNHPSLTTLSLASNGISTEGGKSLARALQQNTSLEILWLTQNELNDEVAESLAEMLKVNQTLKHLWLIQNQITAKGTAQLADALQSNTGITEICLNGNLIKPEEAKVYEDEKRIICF
# HEK293 = test: cells; conditions: Homo sapiens;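 note: cells exposed to compound for 14 hours overnight before viability readout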
# [5] = target: T3, Runt-related transcription factor 1/Core-binding factor subunit beta (Homo sapiens, UniProt Q01196+Q13951); test: inhibitors of RUNX1 Runt–CBFb-SMMHC binding, primary screen, biochemical, FRET, Cerulean-Runt, Venus-CBFb-SMMHC, uHTS (AID 1434); format: protein assay;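 note: partner is the CBFb-SMMHC leukemia fusion protein rather than wild-type CBFb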
# T3 sequence (Q01196 whole entry, the tested form may be a part): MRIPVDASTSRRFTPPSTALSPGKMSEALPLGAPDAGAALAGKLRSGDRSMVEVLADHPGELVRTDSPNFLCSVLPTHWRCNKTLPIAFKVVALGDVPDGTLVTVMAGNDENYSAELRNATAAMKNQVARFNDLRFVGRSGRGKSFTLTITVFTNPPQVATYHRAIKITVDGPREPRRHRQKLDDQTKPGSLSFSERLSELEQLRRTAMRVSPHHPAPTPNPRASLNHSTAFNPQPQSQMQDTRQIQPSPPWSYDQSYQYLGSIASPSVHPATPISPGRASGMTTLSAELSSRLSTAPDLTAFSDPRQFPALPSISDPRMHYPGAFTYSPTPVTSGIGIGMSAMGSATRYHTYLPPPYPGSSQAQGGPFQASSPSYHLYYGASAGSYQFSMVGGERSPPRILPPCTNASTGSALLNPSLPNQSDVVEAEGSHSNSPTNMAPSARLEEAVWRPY
# T3 sequence (Q13951 whole entry, the tested form may be a part): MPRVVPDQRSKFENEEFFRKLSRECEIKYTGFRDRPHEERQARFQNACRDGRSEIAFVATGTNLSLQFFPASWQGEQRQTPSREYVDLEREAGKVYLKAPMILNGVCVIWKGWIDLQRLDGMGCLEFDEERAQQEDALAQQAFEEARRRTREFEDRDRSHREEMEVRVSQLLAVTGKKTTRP
# [6] = target: T3, Runt-related transcription factor 1/Core-binding factor subunit beta; test: inhibitors of RUNX1 Runt–CBFb-SMMHC binding, biochemical, TR-FRET (AID 1438); format: protein assay
# [7] = target: T4, Alkaline phosphatase, tissue-nonspecific isozyme (Homo sapiens, UniProt P05186); test: human TNAP enzyme inhibitors, SAR follow-up, biochemical, luminescent, dose response (AID 1056)
# T4 sequence (P05186 whole entry): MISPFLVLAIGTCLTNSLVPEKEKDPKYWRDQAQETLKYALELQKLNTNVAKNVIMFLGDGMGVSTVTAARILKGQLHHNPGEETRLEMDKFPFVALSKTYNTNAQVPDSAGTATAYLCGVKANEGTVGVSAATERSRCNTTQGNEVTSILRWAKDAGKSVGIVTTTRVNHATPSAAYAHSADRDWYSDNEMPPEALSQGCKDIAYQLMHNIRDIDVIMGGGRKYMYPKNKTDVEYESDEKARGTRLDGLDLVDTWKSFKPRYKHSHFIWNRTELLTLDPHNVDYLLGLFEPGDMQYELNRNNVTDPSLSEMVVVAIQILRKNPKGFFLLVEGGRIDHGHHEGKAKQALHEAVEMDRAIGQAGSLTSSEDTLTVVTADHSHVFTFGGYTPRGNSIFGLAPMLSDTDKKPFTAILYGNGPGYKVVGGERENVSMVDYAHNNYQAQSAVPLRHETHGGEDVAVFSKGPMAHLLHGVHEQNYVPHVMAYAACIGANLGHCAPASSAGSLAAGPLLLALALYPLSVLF
# [8] = target: Alkaline phosphatase, placental type (Homo sapiens, UniProt P05187); test: PLAP enzyme inhibitors, confirmation, biochemical, luminescence (AID 1512); format: functional
# Chain of Alkaline phosphatase, placental type (P05187 whole entry): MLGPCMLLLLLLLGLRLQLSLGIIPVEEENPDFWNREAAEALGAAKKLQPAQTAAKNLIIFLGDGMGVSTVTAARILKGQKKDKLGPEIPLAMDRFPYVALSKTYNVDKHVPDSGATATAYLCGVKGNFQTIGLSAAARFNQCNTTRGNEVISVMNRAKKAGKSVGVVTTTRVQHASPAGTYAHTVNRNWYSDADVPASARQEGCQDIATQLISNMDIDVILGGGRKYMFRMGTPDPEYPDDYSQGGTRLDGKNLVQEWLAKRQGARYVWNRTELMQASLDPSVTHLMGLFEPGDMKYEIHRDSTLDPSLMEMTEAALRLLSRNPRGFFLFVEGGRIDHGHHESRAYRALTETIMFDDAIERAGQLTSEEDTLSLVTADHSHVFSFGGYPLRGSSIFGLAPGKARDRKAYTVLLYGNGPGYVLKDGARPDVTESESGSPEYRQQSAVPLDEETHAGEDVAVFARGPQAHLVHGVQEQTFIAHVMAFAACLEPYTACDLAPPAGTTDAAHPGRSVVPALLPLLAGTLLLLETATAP
# [9] = target: Intestinal-type alkaline phosphatase (Mus musculus, UniProt P24822); test: PubChem AID 488874; format: functional
# Chain of Intestinal-type alkaline phosphatase (Mus musculus, UniProt P24822) (P24822 whole entry): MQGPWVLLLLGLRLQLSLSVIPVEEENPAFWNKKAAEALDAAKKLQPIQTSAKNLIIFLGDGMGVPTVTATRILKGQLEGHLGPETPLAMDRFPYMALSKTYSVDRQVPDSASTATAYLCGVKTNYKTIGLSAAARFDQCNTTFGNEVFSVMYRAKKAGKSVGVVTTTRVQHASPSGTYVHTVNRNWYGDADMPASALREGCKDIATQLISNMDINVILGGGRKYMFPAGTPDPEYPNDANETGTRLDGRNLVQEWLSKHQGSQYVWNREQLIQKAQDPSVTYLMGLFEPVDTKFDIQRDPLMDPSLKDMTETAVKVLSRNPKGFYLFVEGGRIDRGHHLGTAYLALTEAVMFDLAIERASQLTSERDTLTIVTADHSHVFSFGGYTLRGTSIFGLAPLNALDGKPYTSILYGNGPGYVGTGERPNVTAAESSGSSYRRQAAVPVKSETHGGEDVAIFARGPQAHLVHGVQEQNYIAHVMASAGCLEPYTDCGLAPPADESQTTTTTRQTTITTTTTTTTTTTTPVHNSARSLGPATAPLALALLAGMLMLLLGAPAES
# [10] = target: T4, Alkaline phosphatase, tissue-nonspecific isozyme; test: TNAP enzyme activators, dose response, selectivity assay for human IAP activator project, biochemical, TNAP isozyme, human IAP uHTS hits (AID 488886); format: functional;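 note: potency of compounds raising TNAP activity as a selectivity check on IAP activators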
# [11] = target: T5, Intestinal-type alkaline phosphatase (Homo sapiens, UniProt P09923); test: human intestinal alkaline phosphatase activators, dose response, biochemical, luminescence, uHTS hits (AID 463120); format: functional
# T5 sequence (P09923 whole entry): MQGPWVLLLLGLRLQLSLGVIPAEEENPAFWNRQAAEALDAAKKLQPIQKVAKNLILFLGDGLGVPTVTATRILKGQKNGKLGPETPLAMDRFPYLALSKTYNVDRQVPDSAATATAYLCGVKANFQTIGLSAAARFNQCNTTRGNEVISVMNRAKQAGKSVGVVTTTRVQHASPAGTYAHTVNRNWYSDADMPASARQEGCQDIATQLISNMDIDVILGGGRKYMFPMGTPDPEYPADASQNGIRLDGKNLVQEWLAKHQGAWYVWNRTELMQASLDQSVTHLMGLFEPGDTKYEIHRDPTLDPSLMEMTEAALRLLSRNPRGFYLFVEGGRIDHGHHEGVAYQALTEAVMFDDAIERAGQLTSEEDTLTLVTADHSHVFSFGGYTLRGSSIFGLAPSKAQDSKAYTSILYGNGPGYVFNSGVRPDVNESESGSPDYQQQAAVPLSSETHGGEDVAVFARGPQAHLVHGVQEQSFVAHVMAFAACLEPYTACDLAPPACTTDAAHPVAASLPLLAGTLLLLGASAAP
# [12] = target: T5, Intestinal-type alkaline phosphatase; test: human IAP activators, dose response, biochemical, luminescent, uHTS hits, set 2 (AID 488817); format: functional;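 note: potency of activators that raise enzyme activity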
# [13] = target: T6, Replicative DNA helicase DnaB (Mycobacterium tuberculosis, UniProt P9WMR3); test: DnaB intein splicing inhibitors, dose response, biochemical, cell-free fluorescence (AID 449749); format: functional
# T6 sequence (P9WMR3 whole entry): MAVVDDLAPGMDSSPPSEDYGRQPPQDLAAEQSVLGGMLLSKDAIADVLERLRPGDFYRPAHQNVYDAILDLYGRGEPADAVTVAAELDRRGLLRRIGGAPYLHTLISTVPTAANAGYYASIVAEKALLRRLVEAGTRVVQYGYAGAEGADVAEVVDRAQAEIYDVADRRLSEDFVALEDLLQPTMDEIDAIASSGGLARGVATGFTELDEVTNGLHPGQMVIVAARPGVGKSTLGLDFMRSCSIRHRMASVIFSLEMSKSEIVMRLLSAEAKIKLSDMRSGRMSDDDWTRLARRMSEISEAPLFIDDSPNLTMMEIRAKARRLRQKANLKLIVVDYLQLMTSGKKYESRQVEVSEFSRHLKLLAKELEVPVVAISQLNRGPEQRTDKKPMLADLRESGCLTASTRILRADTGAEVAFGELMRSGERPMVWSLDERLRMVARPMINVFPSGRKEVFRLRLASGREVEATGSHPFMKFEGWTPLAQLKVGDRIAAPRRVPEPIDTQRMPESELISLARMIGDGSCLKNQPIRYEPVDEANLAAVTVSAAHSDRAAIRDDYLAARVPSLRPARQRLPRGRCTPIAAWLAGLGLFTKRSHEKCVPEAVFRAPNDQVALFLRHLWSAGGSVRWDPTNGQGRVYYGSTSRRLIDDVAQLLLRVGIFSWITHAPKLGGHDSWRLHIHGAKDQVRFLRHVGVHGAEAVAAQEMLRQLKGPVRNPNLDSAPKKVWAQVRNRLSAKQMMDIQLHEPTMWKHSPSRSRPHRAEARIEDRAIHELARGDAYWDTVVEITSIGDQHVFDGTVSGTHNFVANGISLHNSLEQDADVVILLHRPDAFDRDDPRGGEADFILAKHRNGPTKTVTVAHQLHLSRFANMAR
# [14] = target: Glyceraldehyde-3-phosphate dehydrogenase (Homo sapiens, UniProt P04406)
# Chain of Glyceraldehyde-3-phosphate dehydrogenase (P04406 whole entry): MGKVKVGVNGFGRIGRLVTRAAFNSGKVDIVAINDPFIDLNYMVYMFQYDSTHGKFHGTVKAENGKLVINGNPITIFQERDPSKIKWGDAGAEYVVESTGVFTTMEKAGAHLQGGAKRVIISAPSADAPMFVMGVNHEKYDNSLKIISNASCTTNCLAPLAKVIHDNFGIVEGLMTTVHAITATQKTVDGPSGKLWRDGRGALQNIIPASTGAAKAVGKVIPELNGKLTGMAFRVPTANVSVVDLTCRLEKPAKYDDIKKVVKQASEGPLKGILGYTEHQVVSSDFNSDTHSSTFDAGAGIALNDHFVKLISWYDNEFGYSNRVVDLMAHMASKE
# Protein RecA = target: T7, Protein RecA (Mycobacterium tuberculosis, UniProt P9WHJ3); test: Fluorescence Cell-Free Homogeneous Dose Retest to Identify Inhibitors of RecA-Intein Splicing Activity. [Related pubchem assays (depositor defined):AID2097, AID2223, AID489010, AID492950]; format: functional
# T7 sequence (P9WHJ3 whole entry): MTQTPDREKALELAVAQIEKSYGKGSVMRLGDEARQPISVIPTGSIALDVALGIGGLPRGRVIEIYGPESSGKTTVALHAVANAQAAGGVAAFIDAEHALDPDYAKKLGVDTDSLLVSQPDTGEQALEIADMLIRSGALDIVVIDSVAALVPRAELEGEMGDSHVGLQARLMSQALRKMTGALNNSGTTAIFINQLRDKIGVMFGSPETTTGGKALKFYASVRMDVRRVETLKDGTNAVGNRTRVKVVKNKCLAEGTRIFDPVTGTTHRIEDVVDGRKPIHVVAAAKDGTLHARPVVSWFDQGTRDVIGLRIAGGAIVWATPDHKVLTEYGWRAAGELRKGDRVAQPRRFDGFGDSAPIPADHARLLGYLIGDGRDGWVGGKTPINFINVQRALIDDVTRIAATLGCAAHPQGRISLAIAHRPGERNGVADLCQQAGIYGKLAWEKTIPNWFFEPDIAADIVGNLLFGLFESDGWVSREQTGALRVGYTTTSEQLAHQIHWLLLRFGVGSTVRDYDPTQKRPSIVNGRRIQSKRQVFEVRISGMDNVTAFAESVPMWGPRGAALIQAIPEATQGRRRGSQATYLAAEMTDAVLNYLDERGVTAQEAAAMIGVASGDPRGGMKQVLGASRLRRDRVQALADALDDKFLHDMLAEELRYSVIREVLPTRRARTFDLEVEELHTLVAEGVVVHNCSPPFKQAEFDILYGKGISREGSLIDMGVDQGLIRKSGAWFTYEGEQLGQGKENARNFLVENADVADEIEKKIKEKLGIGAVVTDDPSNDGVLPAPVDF
# [15] = target: T8, High affinity choline transporter 1 (Homo sapiens, UniProt Q9GZV3); test: CHT inhibitors, dose response, cell-based, 5-point CRC, membrane potential dye (AID 504840); format: functional
# T8 sequence (Q9GZV3 whole entry): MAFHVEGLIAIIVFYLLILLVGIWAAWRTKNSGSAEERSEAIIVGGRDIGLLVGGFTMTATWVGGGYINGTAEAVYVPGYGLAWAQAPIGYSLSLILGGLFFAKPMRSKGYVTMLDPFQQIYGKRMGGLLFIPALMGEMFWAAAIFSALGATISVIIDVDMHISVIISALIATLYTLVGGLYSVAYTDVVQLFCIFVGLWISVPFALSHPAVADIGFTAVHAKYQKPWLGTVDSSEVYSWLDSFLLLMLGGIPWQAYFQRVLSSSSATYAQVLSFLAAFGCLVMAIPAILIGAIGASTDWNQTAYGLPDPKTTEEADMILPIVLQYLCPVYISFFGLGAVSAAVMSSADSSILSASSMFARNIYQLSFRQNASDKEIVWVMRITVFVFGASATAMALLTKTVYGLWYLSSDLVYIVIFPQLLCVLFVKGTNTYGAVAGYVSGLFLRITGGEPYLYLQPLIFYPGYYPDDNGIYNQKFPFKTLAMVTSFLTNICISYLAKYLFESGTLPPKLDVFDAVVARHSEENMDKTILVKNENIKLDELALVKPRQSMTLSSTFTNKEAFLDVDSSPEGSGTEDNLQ
Compound,IC50 [7],IC50 [8],IC50 [9],EC50 [10],EC50 [11],EC50 [12],other results
Cc1cc(C(=O)NC2CCCc3c2cnn3-c2ccc(C(C)(C)C)cc2)nn1C (configuration not stated),–,–,–,–,–,–,AC50 [1]: 1.86 µM (active); AC50 [2]: 4.61 µM (active); IC50 [3]: 5.2 µM (active); IC50 (Tumor necrosis factor): 1.44 µM (active); IC50 [4]: 1.33 µM (active); IC50 (HEK293): 12.2 µM (active)
CCCc1cc2c(OC(=O)CC)c(-c3ccc(C(=O)OCC)o3)c(=O)oc2cc1OC,–,–,–,–,–,–,IC50 [5]: 5.51 µM (active); IC50 [6]: 7.94 µM (active)
O=C(CNc1ccncc1)c1ccc(O)c(O)c1,> 100 µM (inactive),> 100 µM (inactive),–,–,–,–,–
Cc1cc(=O)[nH]c(-n2[nH]c3c(c2=O)CCCC3)n1,–,–,> 100 µM (inactive),12.2 µM (active),9.58 µM (active),19.8 µM (active),–
CCCc1c(O)oc2nnc(C)c-2c1C,> 100 µM (inactive),> 100 µM (inactive),–,–,–,–,AC50 [13]: 23.6 µM (active); IC50 [14]: > 100 µM (not active); EC50 (Protein RecA): 14.8 µM (active)
CCOc1ccc(CC(=O)NNC(=S)NC2CCCCC2)cc1OCC,–,–,40.9 µM (active),17.2 µM (active),18.7 µM (active),17.8 µM (active),–
CSCCC(NS(=O)(=O)c1ccc(C)cc1)C(=O)NNC(=O)c1csc(N2CCOCC2)n1 (configuration not stated),–,–,66.6 µM (active),19.1 µM (active),9.84 µM (active),14.1 µM (active),–
CC1CCN(CCNC(=O)C2CCCN(S(=O)(=O)c3cccc4nsnc34)C2)CC1 (configuration not stated),–,–,–,–,–,–,IC50 [15]: 15.8 µM (active)
CC(C)c1nc(N)nn1-c1ccccc1,> 100 µM (inactive),> 100 µM (inactive),–,–,–,–,IC50 [14]: > 100 µM (not active)
O=C(c1cccc(OC2CCN(Cc3ccc(F)cc3Cl)CC2)c1)N1CCCC1,–,–,–,–,–,–,IC50 [15]: 18.2 µM (active)
